Values after ≈ are worked out from the molar mass of the structure shown. Active and inactive are the calls of the source. The calls are words filed in the database; no cut-off is given here.
Experiments:
Salmonella typhimurium = assay: Antibacterial activity against Salmonella typhimurium ATCC 51812 assessed as growth inhibition at 1 mg/ml after 24 hrs by agar diffusion method; format: functional, organism-based; conditions: Salmonella enterica subsp. enterica serovar Typhimurium
Enterococcus faecalis = assay: Antibacterial activity against Enterococcus faecalis ATCC 14506 assessed as growth inhibition at 1 mg/ml after 24 hrs by agar diffusion method; format: functional, organism-based
[1] = system: Staphylococcus epidermidis; assay: Antibacterial activity against Staphylococcus epidermidis ATCC 12228 assessed as growth inhibition at 1 mg/ml after 24 hrs by agar diffusion method; format: functional, organism-based
Staphylococcus aureus [2] = assay: Antibacterial activity against methicillin-resistant Staphylococcus aureus ATCC 43300 assessed as growth inhibition at 1 mg/ml after 24 hrs by agar diffusion method; format: functional, organism-based
[3] = Selectivity index, ratio of CC50 for african green monkey vero cells to MIC for Pseudomonas aeruginosa ATCC 10145; format: functional
[4] = Selectivity index, ratio of CC50 for african green monkey vero cells to MIC for Escherichia coli ATCC 10536; format: functional
[5] = Selectivity index, ratio of CC50 for african green monkey vero cells to MIC for Bacillus subtilis ATCC 11774; format: functional
[6] = Selectivity index, ratio of CC50 for african green monkey vero cells to MIC for Staphylococcus aureus ATCC 25923; format: functional
[7] = Cytotoxicity against african green monkey vero cells by MTT assay; format: cell-based; conditions: chlorocebus sabaeus
Pseudomonas aeruginosa [8] = assay: Bactericidal activity against Pseudomonas aeruginosa ATCC 10145 by broth dilution method; format: functional
Staphylococcus aureus [9] = assay: Bactericidal activity against Staphylococcus aureus ATCC 25923 by broth dilution method; format: functional
Escherichia coli [10] = assay: Bactericidal activity against Escherichia coli ATCC 10536 by broth dilution method; format: functional
Bacillus subtilis [11] = assay: Bactericidal activity against Bacillus subtilis ATCC 11774 by broth dilution method; format: functional
Escherichia coli [12] = assay: Antibacterial activity against Escherichia coli ATCC 10536 assessed as growth inhibition by broth dilution method; format: functional
Pseudomonas aeruginosa [13] = assay: Antibacterial activity against Pseudomonas aeruginosa ATCC 10145 assessed as growth inhibition by broth dilution method; format: functional
Staphylococcus aureus [14] = assay: Antibacterial activity against Staphylococcus aureus ATCC 25923 assessed as growth inhibition by broth dilution method; format: functional
Serratia marcescens = assay: Antibacterial activity against Serratia marcescens ATCC 13880 assessed as growth inhibition at 1 mg/ml after 24 hrs by agar diffusion method; format: functional; conditions: ATCC 13880, 24 h, read-out: DIZ
Bacillus subtilis [15] = assay: Antibacterial activity against Bacillus subtilis ATCC 11774 assessed as growth inhibition by broth dilution method; format: functional
Pseudomonas aeruginosa [16] = assay: Antibacterial activity against Pseudomonas aeruginosa ATCC 10145 assessed as growth inhibition at 1 mg/ml after 24 hrs by agar diffusion method; format: functional; conditions: ATCC 10145, 24 h, read-out: DIZ
Escherichia coli [17] = assay: Antibacterial activity against Escherichia coli ATCC 10536 assessed as growth inhibition at 1 mg/ml after 24 hrs by agar diffusion method; format: functional; conditions: ATCC 10536, 24 h, read-out: DIZ
Staphylococcus aureus [18] = assay: Antibacterial activity against Staphylococcus aureus ATCC 25923 assessed as growth inhibition at 1 mg/ml after 24 hrs by agar diffusion method; format: functional; conditions: ATCC 25923, 24 h, read-out: DIZ
Bacillus subtilis [19] = assay: Antibacterial activity against Bacillus subtilis ATCC 11774 assessed as growth inhibition at 1 mg/ml after 24 hrs by agar diffusion method; format: functional; conditions: ATCC 11774, 24 h, read-out: DIZ

Compound	growth inhibition (GI) (Salmonella typhimurium)	growth inhibition (GI) (Enterococcus faecalis)	growth inhibition (GI) [1]	growth inhibition (GI) (Staphylococcus aureus [2])	Selectivity Index [5]	CC50 [7]	MBC (Staphylococcus aureus [9])	MBC (Escherichia coli [10])	MBC (Bacillus subtilis [11])	MIC (Escherichia coli [12])	MIC (Staphylococcus aureus [14])	zone of inhibition at 1000 µg/mL (Serratia marcescens)	MIC (Bacillus subtilis [15])	zone of inhibition at 1000 µg/mL (Pseudomonas aeruginosa [16])	zone of inhibition at 1000 µg/mL (Escherichia coli [17])	zone of inhibition at 1000 µg/mL (Staphylococcus aureus [18])	zone of inhibition at 1000 µg/mL (Bacillus subtilis [19])	further results
N#Cc1nnc2c(C#N)c(N3CCOCC3)nn2c1N	inactive	inactive	inactive	inactive														
Cc1ccc(C)n1-c1[nH]nc(N2CCCCC2)c1C#N	inactive	inactive	inactive	inactive	0.35	1400 µg/mL (≈ 5.2 mM)	8000 µg/mL (≈ 29.7 mM)	8000 µg/mL (≈ 29.7 mM)	8000 µg/mL (≈ 29.7 mM)	8000 µg/mL (≈ 29.7 mM)	8000 µg/mL (≈ 29.7 mM)	6 mm	4000 µg/mL (≈ 14.9 mM)	7 mm	7 mm	12 mm	16 mm	Selectivity Index [3]: 0.35; Selectivity Index [4]: 0.18; Selectivity Index [6]: 0.18; MBC (Pseudomonas aeruginosa [8]): 8000 µg/mL (≈ 29.7 mM); MIC (Pseudomonas aeruginosa [13]): 4000 µg/mL (≈ 14.9 mM)
CC(=O)n1nc(N2CCOCC2)c(C#N)c1N	inactive	inactive	inactive	inactive														
Cc1ccc(C)n1-c1[nH]nc(N2CCOCC2)c1C#N	inactive	inactive	inactive	inactive	0.13	254 µg/mL (≈ 0.936 mM)	4000 µg/mL (≈ 14.7 mM)	8000 µg/mL (≈ 29.5 mM)	4000 µg/mL (≈ 14.7 mM)	4000 µg/mL (≈ 14.7 mM)	2000 µg/mL (≈ 7.37 mM)	6 mm	2000 µg/mL (≈ 7.37 mM)	6 mm	10 mm	10 mm	14 mm	Selectivity Index [4]: 0.06; Selectivity Index [6]: 0.06
CC(=O)c1nnc2c(C#N)c(N3CCCC3)nn2c1C	inactive	inactive	inactive	inactive														
CC(=O)c1nnc2c(C#N)c(N3CCOCC3)nn2c1C	inactive	inactive	inactive	inactive														
CSc1c(C#N)c(N)nc2c(C#N)c(N3CCOCC3)nn12	inactive	inactive	inactive	inactive														
N#Cc1nnc2c(C#N)c(N3CCCC3)nn2c1N	inactive	inactive	inactive	inactive														
Cc1cc(C)n2nc(N3CCOCC3)c(C#N)c2n1	inactive	inactive	inactive	inactive														
CC(=O)n1nc(N2CCCCC2)c(C#N)c1N	inactive	inactive	inactive	inactive	0.06	1010 µg/mL (≈ 4.35 mM)	> 16000 µg/mL	16000 µg/mL (≈ 68.6 mM)	16000 µg/mL (≈ 68.6 mM)	16000 µg/mL (≈ 68.6 mM)	16000 µg/mL (≈ 68.6 mM)	6 mm	16000 µg/mL (≈ 68.6 mM)	6 mm	10 mm	10 mm	6 mm	
CC(=O)c1nnc2c(C#N)c(N3CCCCC3)nn2c1C	inactive	inactive	inactive	inactive	0.02	312 µg/mL (≈ 1.1 mM)	16000 µg/mL (≈ 56.3 mM)	16000 µg/mL (≈ 56.3 mM)	16000 µg/mL (≈ 56.3 mM)	16000 µg/mL (≈ 56.3 mM)	16000 µg/mL (≈ 56.3 mM)	6 mm	16000 µg/mL (≈ 56.3 mM)	6 mm	8 mm	9 mm	10 mm	Selectivity Index [4]: 0.02; Selectivity Index [6]: 0.02
Cc1ccc(C)n1-c1[nH]nc(N2CCCC2)c1C#N	inactive	inactive	inactive	inactive	0.14	550 µg/mL (≈ 2.15 mM)	8000 µg/mL (≈ 31.3 mM)	16000 µg/mL (≈ 62.7 mM)	8000 µg/mL (≈ 31.3 mM)	8000 µg/mL (≈ 31.3 mM)	8000 µg/mL (≈ 31.3 mM)	6 mm	4000 µg/mL (≈ 15.7 mM)	6 mm	13 mm	7 mm	8 mm	Selectivity Index [4]: 0.07; Selectivity Index [6]: 0.07
Cc1cc(O)n2nc(N3CCOCC3)c(C#N)c2n1	inactive	inactive	inactive	inactive	0.01	63 µg/mL (≈ 0.243 mM)	16000 µg/mL (≈ 61.7 mM)	> 16000 µg/mL	16000 µg/mL (≈ 61.7 mM)	16000 µg/mL (≈ 61.7 mM)	16000 µg/mL (≈ 61.7 mM)	6 mm	8000 µg/mL (≈ 30.9 mM)	7 mm	10 mm	9 mm	9 mm	Selectivity Index [3]: 0.01; Selectivity Index [4]: 0; Selectivity Index [6]: 0; MBC (Pseudomonas aeruginosa [8]): > 16000 µg/mL; MIC (Pseudomonas aeruginosa [13]): 8000 µg/mL (≈ 30.9 mM)
Cc1cc(O)n2nc(N3CCCC3)c(C#N)c2n1	inactive	inactive	inactive	inactive														
Cc1cc(C)n2nc(N3CCCC3)c(C#N)c2n1	inactive	inactive	inactive	inactive														
CSc1c(C#N)c(N)nc2c(C#N)c(N3CCCC3)nn12	inactive	inactive	inactive	inactive														
Cc1cc(O)n2nc(N3CCCCC3)c(C#N)c2n1	inactive	inactive	inactive	inactive														
GENTAMICIN																		MBC (Pseudomonas aeruginosa [8]): 2 µg/mL; MIC (Pseudomonas aeruginosa [13]): 1 µg/mL
CC(=O)n1nc(N2CCCC2)c(C#N)c1N	inactive	inactive	inactive	inactive	0.18	2810 µg/mL (≈ 12.8 mM)	> 16000 µg/mL	16000 µg/mL (≈ 73 mM)	16000 µg/mL (≈ 73 mM)	8000 µg/mL (≈ 36.5 mM)	16000 µg/mL (≈ 73 mM)	6 mm	16000 µg/mL (≈ 73 mM)	6 mm	16 mm	14 mm	14 mm	Selectivity Index [4]: 0.18; Selectivity Index [6]: 0.18
N#Cc1c(N)nc2c(C#N)c(N3CCOCC3)nn2c1N1CCCCC1	inactive	inactive	inactive	inactive														
N#Cc1c(N)nc2c(C#N)c(N3CCCC3)nn2c1N1CCCCC1	inactive	inactive	inactive	inactive														
N#Cc1c(N)nc2c(C#N)c(N3CCOCC3)nn2c1N1CCOCC1	inactive	inactive	inactive	inactive														
N#Cc1c(N)nc2c(C#N)c(N3CCCC3)nn2c1N1CCOCC1	inactive	inactive	inactive	inactive														
